Like-named read-outs stand apart in the source and are kept apart here.
How the values were obtained:
[1] = test system: woolly cupgrass (Eriochloa villosa); test: Test B pre-/postemergence plant response; assay type: in vivo; details: for pest or weed control at 31 g/ha / pest or weed control at 62 g/ha / pest or weed control at 125 g/ha / pest or weed control at 250 g/ha: Eriochloa villosa, read-out: Plant response rating, Cupgrass, Woolly
How it was run: (§1)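 Preemergence and postemergence (plants 2-18 cm, 1- to 4-leaf stage) applications used test chemicals in a non-phytotoxic solvent with surfactant. Plants were held in a greenhouse 13 to 15 days, then rated visually against controls on a 0-100 scale (0 no effect, 100 complete control).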

[2] = test system: large crabgrass (Digitaria sanguinalis); test: Test B pre-/postemergence plant response; assay type: in vivo; details: for pest or weed control at 31 g/ha / pest or weed control at 62 g/ha / pest or weed control at 125 g/ha / pest or weed control at 250 g/ha: Digitaria sanguinalis, read-out: Plant response rating, Crabgrass, Large
How it was run: as §1

[3] = Postemergence, 31 g ai/ha, scale 0 to 100, 0 no effect, 100 complete control
[4] = Postemergence, 62 g ai/ha, scale 0 to 100
[5] = Postemergence, 125 g ai/ha, scale 0 to 100
[6] = Postemergence, 250 g ai/ha, scale 0 to 100
[7] = Preemergence, 31 g ai/ha, 0 to 100 scale, 0 no effect, 100 complete control
[8] = Preemergence, 62 g ai/ha, scale 0 to 100
[9] = Preemergence, 125 g ai/ha, scale 0 to 100
[10] = Preemergence, 250 g ai/ha, scale 0 to 100
[11] = Preemergence, 16 g ai/ha, scale 0 to 100 (0 no effect, 100 complete control)
[12] = Preemergence, 8 g ai/ha, scale 0 to 100
[13] = 8 g ai/ha, postemergence, 0-100 scale
[14] = Postemergence, 16 g ai/ha, scale 0 to 100
[15] = Postemergence, 62 g ai/ha, scale 0 to 100, 0 no effect, 100 complete control
[16] = Postemergence, 31 g ai/ha, scale 0 to 100
[17] = Preemergence, 31 g ai/ha, scale 0 to 100 (0 no effect, 100 complete control)
[18] = Preemergence, 62 g ai/ha, 0 to 100 scale, 0 no effect, 100 complete control
[19] = Preemergence, 16 g ai/ha, scale 0 to 100
[20] = Preemergence, 8 g ai/ha, scale 0 to 100 (0 no effect, 100 complete control)
[21] = post-emergence, Postemergence, 31 g ai/ha, scale 0 to 100, 0 no effect, 100 complete control
[22] = post-emergence, Postemergence, 62 g ai/ha, scale 0 to 100
[23] = post-emergence, Postemergence, 125 g ai/ha, scale 0 to 100
[24] = post-emergence, Postemergence, 250 g ai/ha, scale 0 to 100
[25] = pre-emergence, Preemergence, 31 g ai/ha, 0 to 100 scale, 0 no effect, 100 complete control
[26] = pre-emergence, Preemergence, 62 g ai/ha, scale 0 to 100
[27] = pre-emergence, Preemergence, 125 g ai/ha, scale 0 to 100
[28] = pre-emergence, Preemergence, 250 g ai/ha, scale 0 to 100

SMILES | Plant response rating, Cupgrass, Woolly [1, 7] | Plant response rating, Cupgrass, Woolly [1, 8] | Plant response rating, Crabgrass, Large [2, 7] | Plant response rating, Crabgrass, Large [2, 8] | Cupgrass, Woolly plant response rating [1, 12] | Crabgrass, Large plant response rating [2, 12] | Cupgrass, Woolly plant response rating [1, 13] | Plant response rating, Cupgrass, Woolly [1, 14] | Plant response rating, Cupgrass, Woolly [1, 15] | Crabgrass, Large plant response rating [2, 13] | Plant response rating, Crabgrass, Large [2, 14] | Plant response rating, Crabgrass, Large [2, 15] | Plant response rating, Cupgrass, Woolly [1, 16] | Plant response rating, Cupgrass, Woolly [1, 17] | Plant response rating, Cupgrass, Woolly [1, 18] | Cupgrass, Woolly plant response rating [1, 19] | Plant response rating, Crabgrass, Large [2, 16] | Plant response rating, Crabgrass, Large [2, 17] | Plant response rating, Crabgrass, Large [2, 18] | Crabgrass, Large plant response rating [2, 19] | also measured
Cc1cc(-c2ccc(Br)cc2)nn1-c1c(OC(=O)OC(C)C)cnn(C)c1=O [Compound 6] | 85 | 85 | 98 | 100 | – | – | – | – | – | – | – | – | – | – | – | – | – | – | – | – | Plant response rating, Cupgrass, Woolly [1, 3]: 100; Plant response rating, Cupgrass, Woolly [1, 4]: 100; Plant response rating, Cupgrass, Woolly [1, 5]: 100; Plant response rating, Cupgrass, Woolly [1, 6]: 100; Plant response rating, Cupgrass, Woolly [1, 9]: 85; Plant response rating, Cupgrass, Woolly [1, 10]: 85; Plant response rating, Crabgrass, Large [2, 3]: 100; Plant response rating, Crabgrass, Large [2, 4]: 100; Plant response rating, Crabgrass, Large [2, 5]: 100; Plant response rating, Crabgrass, Large [2, 6]: 100; Plant response rating, Crabgrass, Large [2, 9]: 100; Plant response rating, Crabgrass, Large [2, 10]: 100
Cn1ncc(O)c(-c2nn(-c3ccc(Cl)cc3)cc2Br)c1=O [Compound 31] | 100 | 100 | 100 | 100 | 70 | 80 | – | – | – | – | – | – | – | – | – | – | – | – | – | – | Plant response rating, Cupgrass, Woolly [1, 11]: 98; Plant response rating, Crabgrass, Large [2, 11]: 90
Cc1cc(-c2ccc(Cl)cc2)nn1-c1c(OS(C)(=O)=O)cnn(C)c1=O [Compound 36] | 98 | 100 | 100 | 100 | 85 | 98 | 85 | 90 | 95 | 50 | 65 | 100 | – | – | – | – | – | – | – | – | Plant response rating, Cupgrass, Woolly [1, 3]: 95; Plant response rating, Cupgrass, Woolly [1, 11]: 85; Plant response rating, Crabgrass, Large [2, 3]: 90; Plant response rating, Crabgrass, Large [2, 11]: 98
Cc1cc(-c2ccc(Cl)cc2)nn1-c1c(OC(=S)N(C)C)cnn(C)c1=O [Compound 69] | – | – | – | – | 0 | 0 | 20 | 90 | 100 | 55 | 75 | 100 | 95 | 0 | 85 | 0 | 98 | 0 | 0 | 0 | –
COCc1cc(-c2ccc(Br)cc2)nn1-c1c(O)cnn(C)c1=O [Compound 68] | – | – | – | – | – | – | 0 | 0 | 60 | 20 | 60 | 85 | 30 | – | – | – | 80 | – | – | – | –
CCc1cc(-c2ccc(C(F)(F)F)cc2)nn1-c1c(O)cnn(CC)c1=O [Compound 67] | – | – | – | – | 0 | 0 | 90 | 100 | 100 | 70 | 98 | 100 | 100 | 0 | 0 | 0 | 100 | 0 | 0 | 0 | –
Cc1cc(-c2ccc(C(F)(F)F)cc2)nn1-c1c(OC(=O)C(C)(C)C)cnn(C)c1=O [Compound 2] | 70 | 80 | 98 | 100 | – | – | – | – | – | – | – | – | – | – | – | – | – | – | – | – | Plant response rating, Cupgrass, Woolly [1, 9]: 80; Plant response rating, Cupgrass, Woolly [1, 10]: 100; Plant response rating, Crabgrass, Large [2, 9]: 100; Plant response rating, Crabgrass, Large [2, 10]: 100
Cc1nn(C)c(=O)c(-n2nc(-c3ccc(Br)cc3)cc2C)c1O [Compound 81] | – | – | – | – | – | – | 75 | 85 | 98 | 50 | 98 | 100 | 95 | 95 | 98 | 45 | 100 | 100 | 100 | 98 | Cupgrass, Woolly plant response rating [1, 20]: 20; Crabgrass, Large plant response rating [2, 20]: 65
Cc1cc(-c2ccc(C(F)(F)F)cc2)nn1-c1c(O)cnn(C)c1=O [Compound 1, 5-hydroxy-2-methyl-4-[5-methyl-3-[4-(trifluoromethyl)phenyl]-1H-pyrazol-1-yl]-3(2H)-pyridazinone] | – | – | – | – | – | – | – | – | – | – | – | – | – | – | – | – | – | – | – | – | pest or weed control at 31 g/ha [1, 21]: 95%; pest or weed control at 62 g/ha [1, 22]: 100%; pest or weed control at 125 g/ha [1, 23]: 100%; pest or weed control at 250 g/ha [1, 24]: 100%; pest or weed control at 31 g/ha [1, 25]: 85%; pest or weed control at 62 g/ha [1, 26]: 100%; pest or weed control at 125 g/ha [1, 27]: 100%; pest or weed control at 250 g/ha [1, 28]: 100%; pest or weed control at 31 g/ha [2, 21]: 80%; pest or weed control at 62 g/ha [2, 22]: 90%; pest or weed control at 125 g/ha [2, 23]: 100%; pest or weed control at 250 g/ha [2, 24]: 100%; pest or weed control at 31 g/ha [2, 25]: 98%; pest or weed control at 62 g/ha [2, 26]: 100%; pest or weed control at 125 g/ha [2, 27]: 100%; pest or weed control at 250 g/ha [2, 28]: 100%

Source: US20100267561A1, “HERBICIDAL PYRIDAZINONE DERIVATIVES” (priority 2007, published 2010)
